US20020150915A1, “Promoter sequences” (priority 2000, published 2002)

Target: T1, CAR (Homo sapiens, UniProt Q14994)
T1 construct: amplifying full-length CAR by RT-PCR from total RNA prepared from C3A/HepG2 cells; expressed in transfected cells; host or cells: C3A cells (HepG2 derivative), transient transfection with pcDNA3-hCAR
T1 sequence (Q14994 1-348 isoform Q14994-2): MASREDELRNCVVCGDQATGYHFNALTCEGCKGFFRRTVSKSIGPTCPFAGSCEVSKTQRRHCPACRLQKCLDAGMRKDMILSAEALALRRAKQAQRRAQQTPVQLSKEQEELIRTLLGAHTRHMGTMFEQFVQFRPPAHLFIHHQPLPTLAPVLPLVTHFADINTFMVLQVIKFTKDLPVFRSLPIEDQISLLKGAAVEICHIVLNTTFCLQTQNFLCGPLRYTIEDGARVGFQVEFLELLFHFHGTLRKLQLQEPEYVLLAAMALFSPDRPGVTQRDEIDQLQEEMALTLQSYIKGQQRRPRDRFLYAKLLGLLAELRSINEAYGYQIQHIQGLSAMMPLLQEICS
Assay: Cell based CYP3A7 promoter-luciferase reporter assay with CAR expression vector
Conditions: C3A cells transfected with CYP3A7-9302 reporter and CAR expression vector; 10 μM compound, 48 hours; FIG. 3
Experimental: C3A cells were transfected with Cyp3A7 promoter with (Cyp3A7-9302) or without (CYP3A7-7478) the XREM and with CAR expression vector (CAR) or with empty (pcDNA3) expression vector. Cells were treated with vehicle (DMSO) or 10 μM of rifampicin or clotrimasol. Relative luciferase values represent luciferase activity compensated for the alkaline phosphatase reporter. The data are mean values +/−SD for six wells of a typical experiment
Six well plates were seeded with 0.5×10^6 C3A cells. The cells were maintained in MEM with phenol red containing L-glutamine and supplemented with nonessential amino acids. The medium also contained 10% foetal bovine serum (life Technologies). The cells were allowed to settle for 24 hours before the medium was replaced by medium containing 10% charcoal treated foetal bovine serum (Hyclone Laboratories). Each well was transfected with 0.1 μg RSV-AF, 2 μg of the indicated reporter and 0.5 μg of the expression vector for PAR-2, CAR or the empty expression vector, pcDNA3. FuGENE 6™ Transfection Reagent (Roche) was used according to recommendations from the manufacturer. After 24 hours the medium was replaced by fresh medium containing 10% charcoal treated foetal bovine serum. […] After induction for 48 hours the medium was analysed for the alkaline phosphatase activity and the luciferase activity was measured in the cell lysate as described (Bertilsson et al., 1998). […]

- CAR dependent induction of CYP3A7 reporter: reduced
Compound: Clc1ccccc1C(c1ccccc1)(c1ccccc1)n1ccnc1 [clotrimazole]
